Results reported in patent publication US20130131116A1, “PEST CONTROL COMPOSITION” (SUMITOMO CHEMICAL COMPANY, LIMITED, priority 2010, published 2013).

Tested on: Haemaphysalis longicornis
Assay: Test Example 3: Insecticidal Test on Haemaphysalis longicornis By Treating Glass Surface
Format: in vivo
Settings: Haemaphysalis longicornis, 48 h, read-out: Mortality Rate (%)
Protocol: Acetone solutions were each prepared for the present hydrazide compounds and the present ester compounds. To inner walls of a glass screw tube and lid (NO. 5, manufactured by Maruemu Corporation), 0.2 mL of the acetone solution was uniformly applied. […] The lid is closed tightly, and the number of dead ticks is examined after 2 days.

Compound | mortality at 0.8 mg/m2 [%] | mortality at 0.0064 mg/m2 [%] | mortality at 0.032 mg/m2 [%] | mortality at 0.16 mg/m2 [%]
CC(C)=CC1(C=C(Cl)Cl)C(C(=O)OCc2cccc(Oc3ccccc3)c2)C1(C)C (stereo not drawn) [Present ester compound (2), 3-phenoxybenzyl 3-(2,2-dichlorovinyl)-2,2-dimethyl-3-(2-methylprop-1-enyl)cyclopropanecarboxylate, reference compound] | 13 | – | – | –
CN(NC(=O)CCC(F)(F)F)c1cc(C2=NOC(c3cc(Cl)cc(Cl)c3)(C(F)(F)F)C2)ccc1Cl (stereo not drawn) [Present hydrazide compound (31), N′-methyl-N′-{2-chloro-5-[5-(3,5-dichlorophenyl)-5-trifluoromethyl-4,5-dihydroisoxazol-3-yl]phenyl}-4,4,4-trifluorobutyrohydrazide] | – | 3.3 | – | –
O=C(CCC(F)(F)F)NNc1cc(C2=NOC(c3cc(Cl)cc(Cl)c3)(C(F)(F)F)C2)ccc1Cl (stereo not drawn) [Present hydrazide compound (17), N′-{5-[5-(3,5-dichlorophenyl)-5-trifluoromethyl-4,5-dihydroisoxazol-3-yl]-2-chlorophenyl}-4,4,4-trifluorobutyrohydrazide] | – | – | 3.3 | 40

Same assay, conditions: ester compound alone 0.8 mg/m^2, glass surface, after 2 days

Compound | Mortality Rate (%)
CC(C)=C[C@@H]1[C@@H](C(=O)O[C@H](C#N)c2cccc(Oc3ccccc3)c2)C1(C)C (relative stereo) [Present ester compound (3), (1S)-α-cyano-3-phenoxybenzyl (1R)-trans-2,2-dimethyl-3-(2-methylprop-1-enyl)cyclopropanecarboxylate, reference compound] | 10

Same assay, conditions: ester compound alone 4 mg/m^2, glass surface, after 2 days

Compound | Mortality Rate (%)
3-phenoxybenzyl (1R)-cis/trans-2,2-dimethyl-3-(2-methylprop-1-enyl)cyclopropanecarboxylate [Present ester compound (1), reference compound] | 15

Tested on: not given
Assay: not given
Settings: not given

melting point [°C] | Compound
107 | CC(=O)N(NC(=O)c1ccccc1)c1cc(C2=NOC(c3cc(Cl)cc(Cl)c3)(C(F)(F)F)C2)ccc1Cl (stereo not drawn)
213 | FC(F)(F)C1(c2cc(Cl)cc(Cl)c2)CC(c2ccc(Cl)c(NNC(=S)Nc3ccccc3)c2)=NO1 (stereo not drawn)
205 | O=C(NNc1cc(C2=NOC(c3cc(Cl)cc(Cl)c3)(C(F)(F)F)C2)ccc1Cl)c1cccnc1 (stereo not drawn)
105 | O=C(NNc1cc(C2=NOC(c3cc(Cl)cc(Cl)c3)(C(F)(F)F)C2)ccc1Cl)c1ccccc1 (stereo not drawn)
201 | O=C(NNc1cc(C2=NOC(c3cc(Cl)cc(Cl)c3)(C(F)(F)F)C2)ccc1Cl)Nc1ccc([N+](=O)[O-])cc1 (stereo not drawn)
88 | CC(=O)N(C)Nc1cccc(C2=NOC(c3cc(Cl)cc(Cl)c3)(C(F)(F)F)C2)c1 (stereo not drawn)
212 | CN(C)C(=O)NNc1cc(C2=NOC(c3cc(Cl)cc(Cl)c3)(C(F)(F)F)C2)ccc1Cl (stereo not drawn)
160 | CC(=O)N(NC(=O)C1CC1)c1cc(C2=NOC(c3cc(Cl)cc(Cl)c3)(C(F)(F)F)C2)ccc1Cl (stereo not drawn)
172 | O=C(NN(C(=O)c1ccccc1)c1cc(C2=NOC(c3cc(Cl)cc(Cl)c3)(C(F)(F)F)C2)ccc1Cl)C1CC1 (stereo not drawn)
164 | COCC(=O)NN(C(C)=O)c1cc(C2=NOC(c3cc(Cl)cc(Cl)c3)(C(F)(F)F)C2)ccc1Cl (stereo not drawn)
231 | O=C(NNc1cc(C2=NOC(c3cc(Cl)cc(Cl)c3)(C(F)(F)F)C2)ccc1Cl)c1ccc([N+](=O)[O-])cc1 (stereo not drawn)
92 | CCC(=O)NNc1cc(C2=NOC(c3cc(Cl)cc(Cl)c3)(C(F)(F)F)C2)ccc1Cl (stereo not drawn)
94 | CC(=O)NNc1cc(C2=NOC(c3cc(Cl)cc(Cl)c3)(C(F)(F)F)C2)ccc1Cl (stereo not drawn)
131 | COc1ccc(C(=O)NNc2cc(C3=NOC(c4cc(Cl)cc(Cl)c4)(C(F)(F)F)C3)ccc2Cl)cc1 (stereo not drawn)
119 | C=CC(=O)NN(C(=O)OC(C)(C)C)c1cc(C2=NOC(c3cc(Cl)cc(Cl)c3)(C(F)(F)F)C2)ccc1Cl (stereo not drawn)
64 | O=C(NNc1cc(C2=NOC(c3cc(Cl)cc(Cl)c3)(C(F)(F)F)C2)ccc1Cl)C(F)(F)F (stereo not drawn)
180 | CC(C)(C)OC(=O)N(NC(=O)C1CC1)c1cc(C2=NOC(c3cc(Cl)cc(Cl)c3)(C(F)(F)F)C2)ccc1Cl (stereo not drawn)
82 | CCCC(=O)NNc1cc(C2=NOC(c3cc(Cl)cc(Cl)c3)(C(F)(F)F)C2)ccc1Cl (stereo not drawn)
100 | CC(=O)NNc1cccc(C2=NOC(c3cc(Cl)cc(Cl)c3)(C(F)(F)F)C2)c1 (stereo not drawn)
108 | CC(=O)NN(C(C)=O)c1cc(C2=NOC(c3cc(Cl)cc(Cl)c3)(C(F)(F)F)C2)ccc1Cl (stereo not drawn)
71 | Cc1ccc(C2=NOC(c3cc(Cl)cc(Cl)c3)(C(F)(F)F)C2)cc1NNC(=O)OC(C)C (stereo not drawn)
90 | C=CC(=O)NNc1cc(C2=NOC(c3cc(Cl)cc(Cl)c3)(C(F)(F)F)C2)ccc1Cl (stereo not drawn)
157 | O=C(CCC(F)(F)F)NN(C(=O)c1ccccc1)c1cc(C2=NOC(c3cc(Cl)cc(Cl)c3)(C(F)(F)F)C2)ccc1Cl (stereo not drawn)
79 | CC(=O)N(C)N(C(=O)OC(C)(C)C)c1cccc(C2=NOC(c3cc(Cl)cc(Cl)c3)(C(F)(F)F)C2)c1 (stereo not drawn)
126 | FC(F)(F)C1(c2cc(Cl)cc(Cl)c2)CC(c2ccc(Cl)c(NNC(=S)NC3CCCCC3)c2)=NO1 (stereo not drawn)
115 | O=C(NNc1cc(C2=NOC(c3cc(Cl)cc(Cl)c3)(C(F)(F)F)C2)ccc1Cl)c1ccncc1 (stereo not drawn)
131 | O=C(NNc1cc(C2=NOC(c3cc(Cl)cc(Cl)c3)(C(F)(F)F)C2)ccc1Cl)Nc1ccccc1 (stereo not drawn)
151 | CC(=O)N(C)N(C)c1cccc(C2=NOC(c3cc(Cl)cc(Cl)c3)(C(F)(F)F)C2)c1 (stereo not drawn)
142 | CC(=O)NN(C(=O)c1ccccc1)c1cc(C2=NOC(c3cc(Cl)cc(Cl)c3)(C(F)(F)F)C2)ccc1Cl (stereo not drawn)
205 | O=C(/C=C/c1ccccc1)NNc1cc(C2=NOC(c3cc(Cl)cc(Cl)c3)(C(F)(F)F)C2)ccc1Cl (stereo not drawn)
